Measured values reported in PMC6173406, “Design and evaluation of selective butyrylcholinesterase inhibitors based on Cinchona alkaloid scaffold” (PLoS ONE, 2018).
Where two headings read alike, the source gives them in different places.

How the values were obtained:
human AChE = molecular target: T1, human AChE (Homo sapiens, UniProt P22303); assay: Reversible inhibition of human AChE, Ellman method with ATCh, Hunter-Downs analysis; assay type: biochemical; set-up: key to AChE type of inhibition: c, n and m stands for competitive, noncompetitive and mixed type of inhibition; c, n and m stands for competitive, noncompetitive and mixed type of inhibition; c, n and m stands for competitive, noncompetitive and mixed type of inhibition; settings: for Ki: enzyme-inhibitor dissociation constant ± standard error, ATCh 0.050–0.50 mM, pH 7.4, 25 °C; for AChE Ks: enzyme-substrate (ATCh) dissociation constant derived from the inhibition kinetics with the compound; for AChE type of inhibition: symbol in brackets after Ki
T1 construct: gift of Dr. F. Nachon (Département de Toxicologie, Armed Forces Biomedical Research Institute, France)
T1 sequence (P22303 32-614): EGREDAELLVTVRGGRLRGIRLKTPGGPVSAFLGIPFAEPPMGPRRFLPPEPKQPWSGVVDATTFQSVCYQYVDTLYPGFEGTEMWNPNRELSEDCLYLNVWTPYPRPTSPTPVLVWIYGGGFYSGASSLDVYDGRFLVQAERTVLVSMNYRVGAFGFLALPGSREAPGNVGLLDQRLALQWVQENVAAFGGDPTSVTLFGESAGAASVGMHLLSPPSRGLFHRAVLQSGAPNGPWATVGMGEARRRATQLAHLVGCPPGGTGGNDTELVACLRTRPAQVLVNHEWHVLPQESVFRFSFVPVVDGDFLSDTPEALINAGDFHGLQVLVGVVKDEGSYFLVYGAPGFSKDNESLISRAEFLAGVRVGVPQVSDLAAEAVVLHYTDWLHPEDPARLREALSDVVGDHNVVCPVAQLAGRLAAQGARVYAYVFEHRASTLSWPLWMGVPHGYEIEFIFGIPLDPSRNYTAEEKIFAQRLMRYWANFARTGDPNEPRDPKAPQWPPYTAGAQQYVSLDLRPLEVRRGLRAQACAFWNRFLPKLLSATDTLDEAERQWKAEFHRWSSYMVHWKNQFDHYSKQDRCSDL
Experimental: (§1) Purified human BChE and recombinant human AChE were kindly provided by Dr. F. Nachon (Département de Toxicologie, Armed Forces Biomedical Research Institute, France). The concentration of enzymes (BChE: 5.6 μM; AChE: 0.20 μM) was determined as described previously. The concentrated stocks of enzymes were diluted in a phosphate sodium buffer 0.1 M (pH 7.4) containing 0.1% BSA.
(§2) Enzyme activities were measured spectrophotometrically by Ellman method at 412 nm using 0.30 mM DTNB as thiol reagent and ATCh (0.050–0.50 mM) as substrate in 0.1 M phosphate buffer, pH 7.4 [29, 30]. For the inhibition, the reaction mixture also contained cinchonidines or cinchonines (final concentrations 0.020–200 μM, depending on compound). In the case of compounds CD-(pCl) and CN-(pCl), the final content of DMSO was the same in enzyme activity measurement and in inhibition measurements, up to 0.32%. No side interactions of tested compounds with ATCh or DTNB were detected. Measurements were done at 25 °C on a Tecan Infinite M200Pro plate reader (Austria).
(§3) The reversible inhibition of BChE and AChE by cinchonines and cinchonidines was measured by determining the decrease of enzyme activity towards ATCh (0.050–0.50 mM) in their presence. The activities of the enzymes were measured at different substrate concentrations ([S]) in the absence (v0) and presence (vi) of given cinchonines and cinchonidines concentration ([I]) selected to inhibit the enzymes for 20–80%. At least three concentrations of inhibitors for each substrate concentration were used in at least two experiments. The apparent dissociation inhibition constant (Ki,app) was calculated using the Hunter-Downs equation and the linear regression analysis: Ki,app=vi/v0−vi⋅[I]=K(I)+K(I)/K(S)⋅[S] where y-intercept determines the enzyme-inhibitor dissociation constants (K(I)), while x-intercept determines the enzyme-substrate dissociation constant, K(S). The equation was used with the assumption that the substrate, due to relatively low substrate concentrations used in experiments, binds only to the catalytic site, while inhibitor can bind to both sites catalytic and peripheral site. In other words, if the inhibitor competes with substrate for binding to the catalytic site of the enzyme, Ki,app proportionally depend on the substrate concentration. […] The curve means that the inhibitor binds not only to the catalytic or peripheral site but also to intermediates of Michaelis type of the enzyme-substrate complex.

human BChE [1] = molecular target: T2, human BChE (Homo sapiens, UniProt P06276); assay: Reversible inhibition of human BChE, Ellman method with ATCh, Hunter-Downs analysis; assay type: biochemical; set-up: key to BChE type of inhibition: c, n and m stands for competitive, noncompetitive and mixed type of inhibition; c, n and m stands for competitive, noncompetitive and mixed type of inhibition; c, n and m stands for competitive, noncompetitive and mixed type of inhibition; settings: for Ki: enzyme-inhibitor dissociation constant ± standard error, ATCh 0.050–0.50 mM, pH 7.4, 25 °C; for BChE Ks: enzyme-substrate (ATCh) dissociation constant derived from the inhibition kinetics with the compound; for BChE type of inhibition: symbol in brackets after Ki
T2 construct: gift of Dr. F. Nachon (Département de Toxicologie, Armed Forces Biomedical Research Institute, France)
T2 sequence (P06276 29-602): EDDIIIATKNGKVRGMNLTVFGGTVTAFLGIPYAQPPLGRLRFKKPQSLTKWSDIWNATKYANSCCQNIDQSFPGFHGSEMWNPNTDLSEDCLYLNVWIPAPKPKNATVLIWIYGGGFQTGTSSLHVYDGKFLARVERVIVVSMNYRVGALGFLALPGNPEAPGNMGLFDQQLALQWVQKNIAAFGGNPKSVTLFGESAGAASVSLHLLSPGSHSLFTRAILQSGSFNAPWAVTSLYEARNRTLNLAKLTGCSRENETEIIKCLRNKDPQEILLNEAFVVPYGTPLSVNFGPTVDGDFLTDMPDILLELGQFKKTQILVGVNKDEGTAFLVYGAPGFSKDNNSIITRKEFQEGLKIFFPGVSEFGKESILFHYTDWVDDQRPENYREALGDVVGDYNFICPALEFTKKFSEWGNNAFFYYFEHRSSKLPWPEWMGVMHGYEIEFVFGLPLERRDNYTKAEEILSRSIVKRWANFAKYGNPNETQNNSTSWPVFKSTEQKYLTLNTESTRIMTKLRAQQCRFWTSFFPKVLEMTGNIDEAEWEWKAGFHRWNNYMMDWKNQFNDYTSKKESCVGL
Experimental: as §1, §2, §3

human BChE [2] = molecular target: T2, human BChE; settings: cited from earlier work

SMILES	AChE affinity lower than for the highest-affinity compounds (human AChE; compared to CD-(mNO2) and CD-(mCH3)) [times]	Ki (human AChE) [µM]	AChE Ks (human AChE) [mM]	AChE type of inhibition (human AChE)	Ki (human BChE [1]) [µM]	BChE Ks (human BChE [1]) [mM]	Ki(AChE)/ Ki (BChE) (human BChE [1]; inhibition selectivity, ratio of Ki constants for AChE and BChE)	BChE type of inhibition (human BChE [1])	BChE affinity lower compared to CD-(pBr) (human BChE [1]; fold lower affinity than CD-(pBr))	BChE Ks (human BChE [2]) [mM]	Ki (human BChE [2]; read-out: BChE Ki) [µM]
C=CC1C[N+]2(Cc3ccccc3)CCC1CC2C(O)c1ccnc2ccccc12 (centres unmarked) [CN-Bzl]	~50	121 ± 12	1.1 ± 0.4	m	2.9 ± 0.3	0.29 ± 0.04	42	c	–	–	–
C=CC1C[N+]2(C)CCC1CC2C(O)c1ccnc2ccccc12 (centres unmarked) [CN-Met]	–	42 ± 4	0.32 ± 0.05	c	29 ± 4	0.35 ± 0.07	–	c	approximately 730 times	–	–
CCN(CC)C(C)CN1c2ccccc2Sc2ccccc21 (centres unmarked) [Ethopropazine]	–	–	–	–	–	–	–	–	–	0.69 ± 0.14	0.16 ± 0.03
